Patent US7388071B2, “Composition and method for inducing and enhancing a telomerase reverse transcriptase-reactive cytotoxic T lymphocyte response” (The Regents of the University of California, priority 2000, dated 2008)
Peptide text beside a SMILES is read from it.

Columns and labels:
HLA-A2.1 molecule = target: T1, HLA-A2.1 molecule (Homo sapiens, UniProt P04439, D140Y/D185E/D98H/E176V/E277Q/G131W/G231S/I119V/I121R/I166T/I218V/L300P/L318F/N151K/N90K/P208A/P217A/Q86G/Q94H/R138H/R169H/T345S); experiment: HLA-A2.1 binding/stabilization assay on TAP- T2 cells; conditions: time required for a 50% reduction in mean fluorescence intensity
T1 construct: endogenous in cells; host or cells: human T2 cells (TAP-, HLA-A2.1+)
Description: The relative avidity was measured as previously described (25). Briefly, T2 cells were incubated overnight at 37° C. in RPMI supplemented with human β2-microglobulin (100 ng/ml) (Sigma, St. Louis, Mo.) in the absence (negative control) or presence of the test peptide or the reference peptide 4761[…]484 (SEQ ID NO:7) of HIV-1 reverse transcriptase at various final peptide concentrations (0.1-100 μM). Cells were incubated with Brefeldin A (0.5 μg/ml) for one hour and subsequently stained with a saturating concentration of monoclonal antibody BB7.2 for 30 minutes at +4° C. followed by washing and a second incubation with a goat antibody to mouse Ig (Fab′)2 conjugated to FITC (Caltag, South San Francisco). Cells were then washed, fixed with 1% paraformaldehyde and analyzed in a FACs Calibur cytofluorimeter (Becton & Dickinson, San Jose, Calif.). The mean fluorescence intensity of each concentration minus that of cells without peptide was used as an estimate of peptide binding. […] Dissociation of the test peptide from the HLA-A2.1 molecule reflects the half-life of fluorescence intensity of the peptide/MHC complex over time. The half-life of the complex (DC50) refers to the time (hours) required for a 50% reduction of the TO mean fluorescence intensity (25). Synthetic peptides 571[…]579 (SEQ ID NO:5) of carcinoembryonic antigen (CEA) and 476[…]486 (SEQ ID NO:6) of melanoma antigen gp100 were used as internal controls to account for inter-tests variability and for consistency with previously reported RA and DC50 measures (25).
Since the immunogenicity of MHC Class I-restricted peptides reflects to some degree their binding and stabilizing capacity for MHC Class I molecules (31-33) Applicant sought direct proof of the strength of interaction between the two hTRT peptides and the HLA-A2.1 molecule in a conventional binding/stabilization assay that uses the antigen-transporting deficient (TAP-) HLA-A2.1+ human T2 cells. […] The stability of each peptide bound to HLA-A2.1 was measured as the half-life of the complex

HLA-A2+ CD34+ cells = conditions: reference 24; cited from earlier work
[1] = tested on: hTRT+/HLA-A2+ melanoma cell line 624; experiment: Normal donor CTL against p572(Y), lysis of melanoma 624; assay type: cell-based, human; conditions: normal blood donor PBMC immunized in vitro
Source text: FIG. 6. […] The results are expressed as percent lysis and show by comparison lysis of 624 melanoma cells, and HLA-A2+T2 target cells pulsed with the p572(Y) and p572 wild type peptides, respectively. Nonspecific lysis of T2 cells is shown as a control.
CTL generated against p572 were also able to lyze the hTRT+/HLA-A2+ melanoma cell line 624. The antigen-recognition activity of T cells is intimately linked with recognition of MHC (HLA in humans) molecules.

[2] = tested on: HLA-A2+T2 target cells pulsed with peptide; experiment: In vitro immunization of normal HLA-A2+ donor PBMC with Y-modified hTRT peptides; assay type: cell-based, human
Source text: PBMC from three normal HLA-A2+ individuals were immunized with the Y-modified peptides. The results are summarized as follows (Table VII).

[3] = target: T2, HLA-A2.1 molecule on TAP-deficient human T2 cells (human); experiment: T2 cell HLA-A2.1 binding/stabilization assay, BB7.2 flow cytometry; ratio of peptide concentration giving 20% of maximal binding, against reference peptide [..] (SEQ ID NO:7) of HIV-1 reverse transcriptase; lower is stronger
T2 construct: MHC class I molecule on the surface of T2 cells; also called MHC Class I
Description: Briefly, T2 cells were incubated overnight at 37° C. in RPMI supplemented with human β2-microglobulin (100 ng/ml) (Sigma, St. Louis, Mo.) in the absence (negative control) or presence of the test peptide or the reference peptide 476_1[…]$484$ (SEQ ID NO:7) of HIV-1 reverse transcriptase at various final peptide concentrations (0.1-100 µM). Cells were incubated with Brefeldin A (0.5 µg/ml) for one hour and subsequently stained with a saturating concentration of monoclonal antibody BB7.2 for 30 minutes at +4° C. followed by washing and a second incubation with a goat antibody to mouse Ig (Fab')2 conjugated to FITC (Caltag, South San Francisco). Cells were then washed, fixed with 1% paraformaldehyde and analyzed in a FACs Calibur cytofluorimeter (Becton & Dickinson, San Jose, Calif.). The mean fluorescence intensity of each concentration minus that of cells without peptide was used as an estimate of peptide binding. […] Dissociation of the test peptide from the HLA-A2.1 molecule reflects the half-life of fluorescence intensity of the peptide/MHC complex over time. The half-life of the complex (DC50) refers to the time (hours) required for a 50% reduction of the TO mean fluorescence intensity (25). Synthetic peptides $571$[…]$579$ (SEQ ID NO:5) of carcinoembryonic antigen (CEA) and $476$[…]$486$ (SEQ ID NO:6) of melanoma antigen gp100 were used as internal controls to account for intertests variability and for consistency with previously reported RA and DC50 measures (25).
Since the immunogenicity of MHC Class I-restricted peptides reflects to some degree their binding and stabilizing capacity for MHC Class I molecules (31-33) Applicant sought direct proof of the strength of interaction between the two hTRT peptides and the HLA-A2.1 molecule in a conventional binding/stabilization assay that uses the antigen-transporting deficient (TAP-) HLA-A2.1+ human T2 cells.

Molecule: CC[C@H](C)[C@H](N)C(=O)N[C@@H](CC(C)C)C(=O)N[C@@H](C)C(=O)N[C@@H](CCCCN)C(=O)N[C@@H](Cc1ccccc1)C(=O)N[C@@H](CC(C)C)C(=O)N[C@@H](Cc1c[nH]cn1)C(=O)N[C@@H](Cc1c[nH]c2ccccc12)C(=O)N[C@@H](CC(C)C)C(=O)O [p540] (H-ILAKFLHWL-OH)
- DC50 (half-life of peptide/HLA-A2.1 complex) (HLA-A2.1 molecule): 4 to 6 h
- lysis of HLA-A2+ CD34+ cells by CTL raised in normal individuals (HLA-A2+ CD34+ cells): did not lyse

Molecule: CC(C)C[C@H](NC(=O)[C@H](Cc1ccccc1)NC(=O)[C@H](CC(=O)O)NC(=O)[C@H](CC(=O)O)NC(=O)[C@@H](NC(=O)[C@H](CC(C)C)NC(=O)[C@@H](N)CCCNC(=N)N)C(C)C)C(=O)N[C@@H](CC(C)C)C(=O)N[C@H](C(=O)O)C(C)C [p865] (H-RLVDDFLLV-OH)
- DC50 (half-life of peptide/HLA-A2.1 complex) (HLA-A2.1 molecule): 2 to 4 h

Molecule: RLFFYRKSV [p572 wild type]
- lysis of melanoma cell line 624 in words [1]: able to lyze

Molecule: VLYRYGSFSV (listed as Homo sapiens) [gp100 p476, peptide of human melanoma antigen gp100, internal control]
- DC50 (half-life of peptide/HLA-A2.1 complex) (HLA-A2.1 molecule): 4 to 6 h

Molecule: YELLRSFFYV (listed as Homo sapiens) [p555(Y), Y-modified hTRT peptide p555]
- CTL against target cells pulsed with p555(Y) ([2]; donor 218): 4%
- CTL against target cells pulsed with p555(Y) ([2]; donor 219): 8%
- CTL against target cells pulsed with p555(Y) ([2]; donor 222): 1%

Molecule: YLARCALFV (listed as Homo sapiens) [p152(Y), Y-modified hTRT peptide p152]
- CTL against target cells pulsed with p152(Y) ([2]; donor 218): 7%
- CTL against target cells pulsed with p152(Y) ([2]; donor 219): 2%
- CTL against target cells pulsed with p152(Y) ([2]; donor 222): 1%

Molecule: YLFFYRKSV (listed as Homo sapiens) [p572(Y), Y-modified hTRT peptide p572]
- lysis of melanoma cell line 624 in words [1]: kill melanoma cells 624
- CTL against target cells pulsed with p572(Y) ([2]; donor 218): 48-50%
- CTL against target cells pulsed with p572 wild type ([2]; donor 218): 26-46%
- CTL against target cells pulsed with p572(Y) ([2]; donor 219): 4%
- CTL against target cells pulsed with p572(Y) ([2]; donor 222): 27%
- CTL against target cells pulsed with p572 wild type ([2]; donor 222): 5%

B1: hTRT p865 synthetic peptide (residues 865-873 of human telomerase reverse transcriptase) (peptide)
peptide: RLVDDFLLV
notes: Synthetic 9mer, bought from the Biopolymer Synthesis Center (CalTech)
- Relative Avidity (RA) [3]: 2.5

Molecule: VLYRYGSFSV (bought from Neosystem) [gp100 p476 synthetic peptide of human melanoma antigen gp100]
- Relative Avidity (RA) [3]: 9

B2: hTRT p540 synthetic peptide (residues 540-548 of human telomerase reverse transcriptase) (peptide)
peptide: ILAKFLHWL
notes: as for B1
- Relative Avidity (RA) [3]: 2.9
